Data on ten compounds can be found in patent US12415815B2, “Pyrido[2,3-e]oxazine derivatives as agricultural chemicals” (GLOBACHEM NV, priority 2020, dated 2025).

What all share (type): cell-based
Test [1] relates to Botrytis cinerea. The test is described as follows: Fungicidal activity screen in amended agar, 96 well plates, Botrytis cinerea. Conditions: Medium N agar, 5,000 spores/ml, 20, 2, 0.2 and 0.02 ppm, room temperature (18° C.), assessed after 3 to 4 days, read-out: Botrytis (fungal growth vs DMSO controls, EC50 ranking). As for the experimental part:
(§1) Compounds were screened in 96 well plates with 10 compounds per plate. Each compound was screened using agar amended to 20, 2, 0.2 and 0.02 ppm of the test material. Proline at 50 and 10 ppm and 0.2% DMSO were used respectively as positive and negative controls. Each test concentration and standard were tested twice on a plate.
(§2) Compounds were screened against the following three fungal pathogens—Botrytis cinerea, Alternaria alternata and Zymoseptoria tritici. The agar used in the test varied depending on the pathogen with Medium N used for B. cinerea and A. alternata and 1% potato dextrose agar for Z. tritici. For each pathogen sufficient spores were added to the appropriate agar to give 1,000 spores/mL agar of A. alternata, 5,000 spores/ml agar of B. cinerea and 10,000 spores/mL agar of Z. tritici.
(§3) A ×10 stock solution in 2% DMSO was produced for each dose i.e. 200, 20, 2 and 0.2 ppm, and 10 μl of this added to the appropriate wells on the plate. An equivalent amount of 2% DMSO and Proline stock at 500 and 100 ppm were added for the controls. To each well, 90 μl of the appropriate agar spore suspension was added to give the final well concentrations outlined in the first paragraph.
(§4) Plates were incubated at room temperature (18° C.) and assessed after: • a) 3 to 4 days A. alternata and B. cinerea • b) 7 days for Z. tritici
(§5) The amount of fungal growth in each well was compared to the DMSO controls and scored according to the following key: • A—EC50<2 ppm • B—2≤EC50<20 • C—EC50≥20 • D—No activity detected at the highest dose tested • NT—Not tested

The subject of test [2] is Alternaria alternata. The test is described as follows: Fungicidal activity screen in amended agar, 96 well plates, Alternaria alternata. The note with it: Medium N agar, 1,000 spores/mL, 20, 2, 0.2 and 0.02 ppm, room temperature (18° C.), assessed after 3 to 4 days, read-out: Alternaria (fungal growth vs DMSO controls, EC50 ranking). As for the experimental part: as §1, §2, §3, §4, §5

Test [3] has as its system Zymoseptoria tritici. The test is described as follows: Fungicidal activity screen in amended agar, 96 well plates, Zymoseptoria tritici. The note with it: Zymoseptoria tritici, 168 h; 1% potato dextrose agar, 10,000 spores/mL, 20, 2, 0.2 and 0.02 ppm, room temperature (18° C.), assessed after 7 days; read-out: Zymoseptoria (fungal growth vs DMSO controls, EC50 ranking). As to the method:
as §1, §2, §3, §4, §5

Molecules are shown by their SMILES. ≈ marks a conversion by molar mass, not a printed value.

What is called EC50 is the concentration at which the effect is half-maximal.

On to `COc1ccnc2c(=O)n(-c3nc4ccc(Oc5ccc(F)cc5Cl)cc4s3)c(=S)oc12` [Example 6, 3-(6-(2-Chloro-4-fluorophenoxy)benzo[d]thiazol-2-yl)-8-methoxy-2-thioxo-2,3-dihydro-4H-pyrido[2,3-e][1,3]oxazin-4-one], for which the concentration for a half-maximal effect (EC50) is 2 to 20 µg/mL (≈ 4.1 to 41 µM) in test [1], 2 to 20 µg/mL (≈ 4.1 to 41 µM) in test [2] and below 2 µg/mL in test [3].

Regarding `COc1ccnc2c(=O)n(-c3nc4ccc(Oc5cncc(Cl)c5)cc4s3)c(=S)oc12` [Example 7, 3-(6-((5-Chloropyridin-3-yl)oxy)benzo[d]thiazol-2-yl)-8-methoxy-2-thioxo-2,3-dihydro-4H-pyrido[2,3-e][1,3]oxazin-4-one], the concentration giving a half-maximal response (EC50) was 2 to 20 µg/mL (≈ 4.25 to 42.5 µM) in test [1], 2 to 20 µg/mL (≈ 4.25 to 42.5 µM) in test [2] and below 2 µg/mL in test [3].

Regarding `COc1ccnc2c(=O)n(-c3nc4ccc(Oc5cncc(C(F)(F)F)c5)cc4s3)c(=S)oc12` [Example 8, 8-Methoxy-2-thioxo-3-(6-((5-(trifluoromethyl)pyridin-3-yl)oxy)benzo[d]thiazol-2-yl)-2,3-dihydro-4H-pyrido[2,3-e][1,3]oxazin-4-one], the values for the concentration giving a half-maximal response (EC50) in test [1], in test [2] and in test [3] were 2 to 20 µg/mL (≈ 3.96 to 39.6 µM), 2 to 20 µg/mL (≈ 3.96 to 39.6 µM) and below 2 µg/mL, respectively.

For `COc1ccnc2c(=O)n(-c3nc4ccc(Oc5cccc(Cl)c5)cc4s3)c(=S)oc12` [Example 9, 3-(6-(3-Chlorophenoxy)benzo[d]thiazol-2-yl)-8-methoxy-2-thioxo-2,3-dihydro-4H-pyrido[2,3-e][1,3]oxazin-4-one], the 50% effective concentration (EC50) in test [1] is 2 to 20 µg/mL (≈ 4.26 to 42.6 µM); in test [2], 2 to 20 µg/mL (≈ 4.26 to 42.6 µM); in test [3] it was below 2 µg/mL.

For the compound `COc1ccnc2c(=O)n(-c3nc4ccc(Oc5ccc(F)cc5)cc4s3)c(=S)oc12` [Example 10, 3-(6-(4-Fluorophenoxy)benzo[d]thiazol-2-yl)-8-methoxy-2-thioxo-2,3-dihydro-4H-pyrido[2,3-e][1,3]oxazin-4-one], the values for the EC50 in test [1], in test [2] and in test [3] were 2 to 20 µg/mL (≈ 4.41 to 44.1 µM), below 2 µg/mL and below 2 µg/mL, respectively.

Regarding `COc1ccnc2c(=O)n(-c3nc4ccc(Oc5cccc(F)c5)cc4s3)c(=S)oc12` [Example 11, 3-(6-(3-Fluorophenoxy)benzo[d]thiazol-2-yl)-8-methoxy-2-thioxo-2,3-dihydro-4H-pyrido[2,3-e][1,3]oxazin-4-one], the EC50 in test [1], in test [2] and in test [3] was 2 to 20 µg/mL (≈ 4.41 to 44.1 µM) throughout.

For the compound `COc1ccnc2c(=O)n(-c3nc4ccc(Oc5ccccc5)cc4s3)c(=S)oc12` [Example 17, 8-Methoxy-3-(6-phenoxybenzo[d]thiazol-2-yl)-2-thioxo-2,3-dihydro-4H-pyrido[2,3-e][1,3]oxazin-4-one], the concentration giving a half-maximal response (EC50) in test [1] is 2 to 20 µg/mL (≈ 4.59 to 45.9 µM); in test [2], 2 to 20 µg/mL (≈ 4.59 to 45.9 µM); in test [3], below 2 µg/mL.

`COc1ccnc2c(=O)n(-c3nc4ccc(Oc5ccccc5C(F)(F)F)cc4s3)c(=S)oc12` [Example 20, 8-Methoxy-2-thioxo-3-(6-(2-(trifluoromethyl)phenoxy)benzo[d]thiazol-2-yl)-2,3-dihydro-4H-pyrido[2,3-e][1,3]oxazin-4-one]: the EC50 is 2 to 20 µg/mL (≈ 3.97 to 39.7 µM) in test [1], 2 to 20 µg/mL (≈ 3.97 to 39.7 µM) in test [2] and below 2 µg/mL in test [3].

For the compound `COc1ccnc2c(=O)n(-c3nc4ccc(Oc5cc(F)cc(F)c5)cc4s3)c(=S)oc12` [Example 21, 3-(6-(3,5-Difluorophenoxy)benzo[d]thiazol-2-yl)-8-methoxy-2-thioxo-2,3-dihydro-4H-pyrido[2,3-e][1,3]oxazin-4-one], the EC50 in test [1] was 2 to 20 µg/mL (≈ 4.24 to 42.4 µM); in test [2], 2 to 20 µg/mL (≈ 4.24 to 42.4 µM); in test [3], below 2 µg/mL.

Turning to `COc1ccnc2c(=O)n(-c3nc4ccc(OC5CCCCC5)cc4s3)c(=S)oc12` [Example 22, 3-(6-(Cyclohexyloxy)benzo[d]thiazol-2-yl)-8-methoxy-2-thioxo-2,3-dihydro-4H-pyrido[2,3-e][1,3]oxazin-4-one], the concentration giving a half-maximal response (EC50) was 2 to 20 µg/mL (≈ 4.53 to 45.3 µM) in test [1], at least 20 µg/mL in test [2] and 2 to 20 µg/mL (≈ 4.53 to 45.3 µM) in test [3].
